In PMC5681660, “Reduced hepatitis B and D viral entry using clinically applied drugs as novel inhibitors of the bile acid transporter NTCP” (Scientific Reports, 2017):
Structures can show the parent of a compound that is named as a salt.

Molecular target: T1, human NTCP (Homo sapiens, UniProt Q14973)
T1 sequence (Q14973 1-349): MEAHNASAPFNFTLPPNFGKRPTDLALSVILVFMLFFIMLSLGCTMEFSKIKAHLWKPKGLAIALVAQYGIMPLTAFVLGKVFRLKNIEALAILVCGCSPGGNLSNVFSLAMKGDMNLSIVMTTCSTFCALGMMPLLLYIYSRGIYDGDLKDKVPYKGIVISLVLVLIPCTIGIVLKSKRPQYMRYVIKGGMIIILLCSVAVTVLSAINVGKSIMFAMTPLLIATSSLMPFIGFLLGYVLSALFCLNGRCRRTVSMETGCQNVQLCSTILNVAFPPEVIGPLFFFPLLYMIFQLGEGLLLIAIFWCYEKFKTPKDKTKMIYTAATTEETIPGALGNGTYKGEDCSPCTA
Assay: Screening taurocholate uptake assay (96-well, [14C]taurocholate, 10 µM drug)
Details: for B-score functional assay: screening taurocholate uptake, 10 µM drug

[1] = combined ranking of functional and binding screening assays
[2] = ranking over the functional and the binding screening assay

SMILES	Ranking score [1]	B-score functional assay	Ranking score [2]	B-score functional assay (B-score)
COc1cnc(NS(=O)(=O)c2ccc(N)cc2)nc1 [Sulfameter]	466.613	-1.201		
CC1=C(CC(=O)O)c2cc(F)ccc2/C1=C\c1ccc([S+](C)[O-])cc1 (stereo not drawn) [Sulindac]		-1.878	109.727	
CC(C(=O)O)c1ccc(C(=O)c2cccs2)cc1 (stereo not drawn) [Suprofen]	554.797	-0.917		
CCCCC1(COC(=O)CCC(=O)O)C(=O)N(c2ccccc2)N(c2ccccc2)C1=O [Suxibuzone]	1138			1.433
C[C@]1(Cn2ccnn2)[C@H](C(=O)O)N2C(=O)C[C@H]2S1(=O)=O [Tazobactam]	613.948	2.889		
O=c1[nH]c(=O)n(C2CCCO2)cc1F (stereo not drawn) [Tegafur]	518.446	-0.939		
CCCc1nc2c(C)cc(-c3nc4ccccc4n3C)cc2n1Cc1ccc(-c2ccccc2C(=O)O)cc1 [Telmisartan]		-4.106	165.804	
CN1C(C(=O)Nc2ccccn2)=C(O)c2sccc2S1(=O)=O [Tenoxicam]	641.502	0.141		
COc1cc2nc(N3CCN(C(=O)C4CCCO4)CC3)nc(N)c2cc1OC (stereo not drawn) [Terazosin hydrochloride]	497.689	-0.092		
CC(C)N1CCN(c2ccc(OCC3COC(Cn4cncn4)(c4ccc(Cl)cc4Cl)O3)cc2)CC1 (stereo not drawn) [Terconazole]	502.144	-0.057		
O.O=C1C(O)=C(O)C(=O)C(O)=C1O [Tetrahydroxy-1,4-quinone hydrate]	603.838	-0.017		
c1ccc(C2CN3CCSC3=N2)cc1 (stereo not drawn) [Tetramisole hydrochloride]		-2.419	250.531	
Cn1cnc2c1c(=O)[nH]c(=O)n2C [Theobromine]	527.693	-0.75		
CS(=O)(=O)c1ccc([C@@H](O)[C@@H](CO)NC(=O)C(Cl)Cl)cc1 [Thiamphenicol]	545.996	-0.089		
COc1c(O[C@@H]2O[C@H](CO)[C@@H](O)[C@H](O)[C@H]2O)cc2c(c1OC)-c1ccc(SC)c(=O)cc1[C@@H](NC(C)=O)CC2 [Thiocolchicoside]		-3.578	64.2729	
CSc1ccc2c(c1)N(CCC1CCCCN1C)c1ccccc1S2 (stereo not drawn) [Thioridazine hydrochloride]		0.02	203.814	
C=C(NC(=O)C(=C)NC(=O)c1csc(C2=N[C@@H]3c4csc(n4)[C@H]4NC(=O)c5csc(n5)[C@H]([C@](C)(O)[C@@H](C)O)NC(=O)[C@H]5CSC(=N5)/C(=C/C)NC(=O)[C@H]([C@@H](C)O)NC(=O)c5csc(n5)[C@]3(CC2)NC(=O)[C@H](C)NC(=O)C(=C)NC(=O)[C@H](C)NC(=O)[C@H]([C@@H](C)CC)N[C@@H]2C=Cc3c([C@H](C)O)cc(nc3[C@H]2O)C(=O)O[C@@H]4C)n1)C(N)=O [Thiostrepton]		-0.068	23.8747	
CCCCCCCCCCCCCCCC[N+](C)(C)CCN(Cc1ccc(OC)cc1)c1ncccn1 [Thonzonium bromide]		-2.235	50.5173	
CC1(C)S[C@@H]2[C@H](NC(=O)[C@H](C(=O)O)c3ccsc3)C(=O)N2[C@H]1C(=O)O [Ticarcillin sodium]		-0.726	110.132	
CCS(=O)(=O)CCn1c([N+](=O)[O-])cnc1C [Tinidazole]	478.029	-0.469		
NC[C@H]1O[C@H](O[C@H]2[C@H](O)[C@@H](O[C@H]3O[C@H](CO)[C@@H](O)[C@H](N)[C@H]3O)[C@H](N)C[C@@H]2N)[C@H](N)C[C@@H]1O [Tobramycin]	498.515	-0.213		

SMILES	Ranking score [1]	B-score functional assay	Ranking score [2]	B-score functional assay (B-score)
CCOC(=O)NNc1nncc2ccccc12 [Todralazine hydrochloride]		-1.372	269.251	
Cc1ccc(S(=O)(=O)NC(=O)NN2CCCCCC2)cc1 [Tolazamide]	601.655	-0.681		
Cc1cccc(N(C)C(=S)Oc2ccc3ccccc3c2)c1 [Tolnaftate]	550.781	6.72		
CNCC[C@@H](Oc1ccccc1C)c1ccccc1 [Tomoxetine hydrochloride]	493.908	3.106		
CN(C)CCOc1ccc(/C(=C(/CCCl)c2ccccc2)c2ccccc2)cc1 [Toremifene]	537.181	0.057		
Cc1cccc(Nc2ccncc2S(=O)(=O)NC(=O)NC(C)C)c1 [Torsemide]	467.226	-1.122		
CCCCNc1c(C(=O)OCC)c(C)nc2c1cnn2CC.Cl [Tracazolate hydrochloride]		-1.912	238.155	
NC[C@H]1CC[C@H](C(=O)O)CC1 [Tranexamic acid]		0.375	255.588	
COc1ccc(/C=C/C(=O)Nc2ccccc2C(=O)O)cc1OC [Tranilast]		-4.178	106.883	
CSc1nc2cc(Cl)c(Oc3cccc(Cl)c3Cl)cc2[nH]1 [Triclabendazole]	541.575	-0.202		
Oc1cc(Cl)ccc1Oc1ccc(Cl)cc1Cl [Triclosan]		-1.77	149.432	
CC[N+](CC)(CC)CCC(O)(c1ccccc1)C1CCCCC1.[Cl-] (stereo not drawn) [Tridihexethyl chloride]	474.251	0.93		
Cl.OC(CCN1CCCCC1)(c1ccccc1)C1CCCCC1 (stereo not drawn) [Trihexyphenidyl-D,L Hydrochloride]	472.758	0.458		
CCC(COC(=O)c1cc(OC)c(OC)c(OC)c1)(c1ccccc1)N(C)C (stereo not drawn) [Trimebutine]	579.884	-0.018		
COc1cc(C(=O)NCc2ccc(OCCN(C)C)cc2)cc(OC)c1OC [Trimethobenzamide hydrochloride]	1250.5			2.997
CC(CN(C)C)CN1c2ccccc2CCc2ccccc21.O=C(O)/C=C\C(=O)O (stereo not drawn) [Trimipramine maleate salt]		-0.962	129.248	
CN(C)CCN(Cc1ccccc1)c1ccccn1 [Tripelennamine hydrochloride]	512.348	-0.493		
Cc1c(C)c2c(c(C)c1O)CCC(C)(C(=O)O)O2 (stereo not drawn) [Trolox]		-2.983	114.263	
CN1[C@@H]2CC[C@H]1C[C@@H](OC(=O)c1c[nH]c3ccccc13)C2 [Tropisetron HCl]	543.985	-1.094		
CC(C)(C)NCC(O)c1ccccc1Cl (stereo not drawn) [Tulobuterol]	1214.72			2.873
CC(C)C[C@H](NC(=O)[C@@H](O)[C@H](N)Cc1ccccc1)C(=O)O [Ubenimex]	608.5	0.218		
